Source: patent US10227357B2, “Compounds and methods for kinase modulation, and indications therefor” (Plexxikon Inc., priority 2012, dated 2019)

What was measured:
c-kit mutant D816V = biological target: T1, c-kit mutant D816V (Homo sapiens, UniProt P10721, D816V/DEL694-753); assay: c-Kit mutant D816V biochemical assay, AlphaScreen; details: c-kit D816V biochemical inhibitory activity; read-out: Biochemical activity (IC50 μM) Kit D816V
T1 construct: residues 551-934, kinase insertion domain residues 694-753 deleted; 6x-histidine (N); made in house; host or cells: E. coli Arctic Express (DE3) RIL (Stratagene)
T1 sequence (P10721 with tags, fused parts or gaps DEL694-753/D816V): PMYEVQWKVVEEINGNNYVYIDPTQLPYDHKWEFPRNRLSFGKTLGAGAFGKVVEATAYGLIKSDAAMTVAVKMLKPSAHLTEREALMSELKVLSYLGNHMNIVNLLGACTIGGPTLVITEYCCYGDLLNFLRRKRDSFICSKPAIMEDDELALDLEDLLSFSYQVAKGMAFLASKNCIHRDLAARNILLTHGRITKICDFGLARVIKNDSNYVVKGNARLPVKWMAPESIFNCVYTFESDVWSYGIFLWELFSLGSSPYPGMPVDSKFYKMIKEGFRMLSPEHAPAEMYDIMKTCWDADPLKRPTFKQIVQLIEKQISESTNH
Procedure, shortened: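 Eight-point, threefold compound series incubated 30 min at room temperature with E. coli-produced D816V kinase, 10 μM ATP, Mg2+/Mn2+ HEPES buffer pH 7.2 and 5% DMSO. After EDTA stop, streptavidin and anti-phosphotyrosine (PY20) AlphaScreen beads gave the read-out, and IC50 was fitted from the concentration–signal curve.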

c-kit kinase = biological target: T2, c-kit kinase (Homo sapiens, UniProt P10721); assay: c-Kit biochemical assay, AlphaScreen, 10 μM ATP; details: c-kit biochemical inhibitory activity; read-out: Biochemical activity (IC50 μM) Kit
T2 construct: The c-kit (or kinase domain thereof) is an active kinase in AlphaScreen; poly-Histidine tag (in-house protein only) (cleaved yes); host or cells: E. coli BL21(DE3)RIL, co-expressed with PTP1B
T2 sequence (P10721 26-976): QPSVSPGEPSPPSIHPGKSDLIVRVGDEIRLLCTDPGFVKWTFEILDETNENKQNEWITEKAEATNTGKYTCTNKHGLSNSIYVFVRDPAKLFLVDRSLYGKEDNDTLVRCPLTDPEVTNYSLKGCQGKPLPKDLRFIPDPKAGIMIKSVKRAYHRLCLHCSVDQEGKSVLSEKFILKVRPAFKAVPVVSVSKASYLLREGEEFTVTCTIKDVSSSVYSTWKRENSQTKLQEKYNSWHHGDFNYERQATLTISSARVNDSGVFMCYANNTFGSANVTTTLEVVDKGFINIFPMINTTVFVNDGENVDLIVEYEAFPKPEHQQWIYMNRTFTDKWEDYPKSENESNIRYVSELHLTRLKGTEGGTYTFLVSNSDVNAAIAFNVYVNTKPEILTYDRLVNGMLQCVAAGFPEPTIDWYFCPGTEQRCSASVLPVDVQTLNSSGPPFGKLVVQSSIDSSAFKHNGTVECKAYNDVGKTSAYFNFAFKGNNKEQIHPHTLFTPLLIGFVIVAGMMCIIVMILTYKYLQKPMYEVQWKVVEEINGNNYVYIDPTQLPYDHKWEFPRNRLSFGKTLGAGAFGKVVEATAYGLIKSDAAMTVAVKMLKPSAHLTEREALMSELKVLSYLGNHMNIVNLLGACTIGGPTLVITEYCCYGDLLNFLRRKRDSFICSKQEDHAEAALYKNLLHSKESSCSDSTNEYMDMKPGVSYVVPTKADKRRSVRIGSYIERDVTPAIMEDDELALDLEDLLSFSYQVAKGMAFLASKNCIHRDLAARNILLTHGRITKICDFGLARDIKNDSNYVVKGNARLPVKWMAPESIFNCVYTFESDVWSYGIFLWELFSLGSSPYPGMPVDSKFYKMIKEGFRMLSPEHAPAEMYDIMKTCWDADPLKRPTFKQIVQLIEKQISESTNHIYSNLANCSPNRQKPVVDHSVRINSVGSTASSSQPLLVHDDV
Procedure, shortened: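 His-tagged c-Kit expressed in E. coli with co-expressed PTP1B (dephosphorylated), tag removed; 0.1 ng per reaction with biotinylated-peptide substrate in 50 mM HEPES pH 7.2, 5 mM MgCl2, 5 mM MnCl2, 5% DMSO, 10 μM ATP, 1 h at room temperature. Phosphorylation detected by AlphaScreen (streptavidin donor, PY20 acceptor beads); IC50 from 8-point 1:3 dilution series.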

| SMILES | IC50 (c-kit mutant D816V) | IC50 (c-kit kinase) |
| --- | --- | --- |
| Cn1cc(-c2cc3c(N4CCC(NS(=O)(=O)c5cc(Cl)c(Cl)s5)CC4)ncnc3[nH]2)cn1 [P-0461, 4,5-dichloro-N-[1-[6-(1-methylpyrazol-4-yl)-7H-pyrrolo[2,3-d]pyrimidin-4-yl]-4-piperidyl]thiophene-2-sulfonamide] | 0.0001 to 1 µM | 1 to 10 µM |
| C[C@H](NC(=O)N1CC=C(c2ncnc3cc(-c4ccc(F)cc4)sc23)CC1)c1cccc(OC(F)F)c1 [P-0573, N-[(1S)-1-[3-(difluoromethoxy)phenyl]ethyl]-4-[6-(4-fluorophenyl)thieno[3,2-d]pyrimidin-4-yl]-3,6-dihydro-2H-pyridine-1-carboxamide] | 1 to 10 µM | 10 to 200 µM |
| Cn1cc(-c2cc3c(N4CCN(C(=O)NCc5ccc(Cl)cc5)CC4)ncnc3[nH]2)cn1 [P-0097, N-[(4-chlorophenyl)methyl]-4-[6-(1-methylpyrazol-4-yl)-7H-pyrrolo[2,3-d]pyrimidin-4-yl]piperazine-1-carboxamide] | 0.0001 to 1 µM | 0.0001 to 1 µM |
| Cc1ccc(S(=O)(=O)NC2CCN(c3ncnc4[nH]c(-c5cnn(C)c5)cc34)CC2)s1 [P-0454, 5-methyl-N-[1-[6-(1-methylpyrazol-4-yl)-7H-pyrrolo[2,3-d]pyrimidin-4-yl]-4-piperidyl]thiophene-2-sulfonamide] | 0.0001 to 1 µM | 10 to 200 µM |
| COc1cccc([C@H](C)NC(=O)N2CCN(c3ncnc4[nH]c(C)cc34)CC2)c1 [P-0003, N-[(1S)-1-(3-methoxyphenyl)ethyl]-4-(6-methyl-7H-pyrrolo[2,3-d]pyrimidin-4-yl)piperazine-1-carboxamide] | 0.0001 to 1 µM | 10 to 200 µM |
| Cc1cc2c(-c3ccc(NS(=O)(=O)c4ccc(F)c(F)c4)cc3)ncnc2[nH]1 [P-0314, 3,4-difluoro-N-[4-(6-methyl-7H-pyrrolo[2,3-d]pyrimidin-4-yl)phenyl]benzenesulfonamide] | 1 to 10 µM | 10 to 200 µM |
| NS(=O)(=O)c1ccc(-c2ncnc3[nH]c(-c4ccc(F)cc4)cc23)cc1 [P-0418, 4-[6-(4-fluorophenyl)-7H-pyrrolo[2,3-d]pyrimidin-4-yl]benzenesulfonamide] | 0.0001 to 1 µM | 1 to 10 µM |
| NS(=O)(=O)c1ccc(-c2cc3c(N4CCN(C(=O)NCc5ccc(F)cc5)CC4)ncnc3[nH]2)cc1 [P-0099, N-[(4-fluorophenyl)methyl]-4-[6-(4-sulfamoylphenyl)-7H-pyrrolo[2,3-d]pyrimidin-4-yl]piperazine-1-carboxamide] | 0.0001 to 1 µM | 1 to 10 µM |
| O=S(=O)(Nc1ccc(F)cc1)c1ccc(-c2ncnc3[nH]c(-c4ccc(F)cc4)cc23)c(F)c1 [P-0328, 3-fluoro-N-(4-fluorophenyl)-4-[6-(4-fluorophenyl)-7H-pyrrolo[2,3-d]pyrimidin-4-yl]benzenesulfonamide] | 0.0001 to 1 µM | 10 to 200 µM |
| C[C@H](NC(=O)N1CCN(c2ncnc3[nH]c(-c4cnn(C)c4)cc23)CC1)c1ccc(Cl)cc1 [P-0095, N-[(1S)-1-(4-chlorophenyl)ethyl]-4-[6-(1-methylpyrazol-4-yl)-7H-pyrrolo[2,3-d]pyrimidin-4-yl]piperazine-1-carboxamide] | 0.0001 to 1 µM | 0.0001 to 1 µM |
| COc1cc([C@H](C)NC(=O)N2CCN(c3ncnc4[nH]c(-c5ccc(F)cc5)cc34)C[C@H]2C)ccc1Cl [P-0649, (2R)-N-[(1S)-1-(4-chloro-3-methoxy-phenyl)ethyl]-4-[6-(4-fluorophenyl)-7H-pyrrolo[2,3-d]pyrimidin-4-yl]-2-methyl-piperazine-1-carboxamide] | 0.0001 to 1 µM | 1 to 10 µM |
| COc1cc2ncnc(-c3ccc(NS(=O)(=O)c4ccc(Cl)cc4)cc3F)c2cc1OCCCN1CCOCC1 [P-0250, 4-chloro-N-[3-fluoro-4-[7-methoxy-6-(3-morpholinopropoxy)quinazolin-4-yl]phenyl]benzenesulfonamide] | 0.0001 to 1 µM | 0.0001 to 1 µM |
| Cc1cc2c(-c3ccc(NS(=O)(=O)c4ccc5c(c4)CCO5)cc3)ncnc2[nH]1 [P-0307, N-[4-(6-methyl-7H-pyrrolo[2,3-d]pyrimidin-4-yl)phenyl]-2,3-dihydrobenzofuran-5-sulfonamide] | 1 to 10 µM | 10 to 200 µM |
| Cc1nn(C)cc1-c1cc2c(N3CCN(C(=O)N[C@@H](C)c4ccc(Cl)cc4)CC3)ncnc2[nH]1 [P-0716, N-[(1S)-1-(4-chlorophenyl)ethyl]-4-[6-(1,3-dimethylpyrazol-4-yl)-7H-pyrrolo[2,3-d]pyrimidin-4-yl]piperazine-1-carboxamide] | 0.0001 to 1 µM | 10 to 200 µM |
| Cc1cc2c(-c3ccc(NS(=O)(=O)c4cc(F)cc(F)c4)cc3F)ncnc2[nH]1 [P-0342, 3,5-difluoro-N-[3-fluoro-4-(6-methyl-7H-pyrrolo[2,3-d]pyrimidin-4-yl)phenyl]benzenesulfonamide] | 10 to 200 µM | 10 to 200 µM |
| Cc1cc2c(N3CCN(C(=O)N[C@@H](C)c4cccc(OC(F)F)c4)[C@H](C)C3)ncnc2[nH]1 [P-0648, (2R)-N-[(1S)-1-[3-(difluoromethoxy)phenyl]ethyl]-2-methyl-4-(6-methyl-7H-pyrrolo[2,3-d]pyrimidin-4-yl)piperazine-1-carboxamide] | 0.0001 to 1 µM | 10 to 200 µM |
| CCOc1ccc(NC(=O)N2CCN(c3ncnc4[nH]c(-c5cccnc5)cc34)CC2)cc1 [P-0225, N-(4-ethoxyphenyl)-4-[6-(3-pyridyl)-7H-pyrrolo[2,3-d]pyrimidin-4-yl]piperazine-1-carboxamide] | 1 to 10 µM | 10 to 200 µM |
| CN(C)c1ccc(-c2cc3c(N4CCN(C(=O)Nc5ccc(OC(F)(F)F)cc5)CC4)ncnc3[nH]2)cn1 [P-0114, 4-[6-[6-(dimethylamino)-3-pyridyl]-7H-pyrrolo[2,3-d]pyrimidin-4-yl]-N-[4-(trifluoromethoxy)phenyl]piperazine-1-carboxamide] | 1 to 10 µM | 0.0001 to 1 µM |
| COc1cc(-c2cc3c(N4CCC(NS(=O)(=O)c5ccc(OC(F)(F)F)cc5)CC4)ncnc3[nH]2)ccn1 [P-0460, N-[1-[6-(2-methoxy-4-pyridyl)-7H-pyrrolo[2,3-d]pyrimidin-4-yl]-4-piperidyl]-4-(trifluoromethoxy)benzenesulfonamide] | 10 to 200 µM | 10 to 200 µM |
| COc1ncc(-c2cc3c(N4CCC(NS(=O)(=O)c5ccc(OC(F)(F)F)cc5)CC4)ncnc3[nH]2)cn1 [P-0465, N-[1-[6-(2-methoxypyrimidin-5-yl)-7H-pyrrolo[2,3-d]pyrimidin-4-yl]-4-piperidyl]-4-(trifluoromethoxy)benzenesulfonamide] | 10 to 200 µM | 10 to 200 µM |
| Cc1cc2c(-c3ccc(NS(=O)(=O)c4ccc5c(c4)CCC5)cc3)ncnc2[nH]1 [P-0302, N-[4-(6-methyl-7H-pyrrolo[2,3-d]pyrimidin-4-yl)phenyl]indane-5-sulfonamide] | 0.0001 to 1 µM | 10 to 200 µM |
| C[C@H](NC(=O)N1CCN(c2ncnc3[nH]c(-c4ccc(F)cc4)cc23)CC1)c1cccc(OC(F)(F)F)c1 [P-0075, 4-[6-(4-fluorophenyl)-7H-pyrrolo[2,3-d]pyrimidin-4-yl]-N-[(1S)-1-[3-(trifluoromethoxy)phenyl]lethyl]piperazine-1-carboxamide] | 1 to 10 µM | 10 to 200 µM |
| O=C(Nc1cccc(C(F)(F)F)c1)NC1CCN(c2ncnc3[nH]ccc23)CC1 [P-0515, 1-[1-(7H-pyrrolo[2,3-d]pyrimidin-4-yl)-4-piperidyl]-3-[3-(trifluoromethyl)phenyl]urea] | 10 to 200 µM | 1 to 10 µM |
| Cc1nn(C)cc1-c1cc2ncnc(N3CCN(C(=O)N[C@H](C)c4ccc(F)cc4)[C@H](C)C3)c2s1 [P-0609, (2R)-4-[6-(1,3-dimethylpyrazol-4-yl)thieno[3,2-d]pyrimidin-4-yl]-N-[(1R)-1-(4-fluorophenyl)ethyl]-2-methyl-piperazine-1-carboxamide] | 0.0001 to 1 µM | 1 to 10 µM |
| O=C(NCc1ccc(F)cc1)N1CCN(c2ncnc3cc(-c4cnn(CCN5CCOCC5)c4)sc23)CC1 [P-0624, N-[(4-fluorophenyl)methyl]-4-[6-[1-(2-morpholinoethyl)pyrazol-4-yl]thieno[3,2-d]pyrimidin-4-yl]piperazine-1-carboxamide] | 0.0001 to 1 µM | 1 to 10 µM |
| COc1cccc([C@H](C)NC(=O)N2CCN(c3ncnc4cc(-c5cn(C)nc5C)sc34)C[C@H]2C)c1 [P-0598, (2R)-4-[6-(1,3-dimethylpyrazol-4-yl)thieno[3,2-d]pyrimidin-4-yl]-N-[(1S)-1-(3-methoxyphenyl)ethyl]-2-methyl-piperazine-1-carboxamide] | 0.0001 to 1 µM | 1 to 10 µM |
| C[C@H](NC(=O)N1CCN(c2ncnc3[nH]c(-c4ccc(F)cc4)cc23)CC1)c1cccc(Cl)c1 [P-0027, N-[(1S)-1-(3-chlorophenyl)ethyl]-4-[6-(4-fluorophenyl)-7H-pyrrolo[2,3-d]pyrimidin-4-yl]piperazine-1-carboxamide] | 0.0001 to 1 µM | 10 to 200 µM |
| COc1ccc(S(=O)(=O)Nc2ccc(-c3ncnc4[nH]nc(C)c34)cc2)cc1 [P-0444, 4-methoxy-N-[4-(3-methyl-1H-pyrazolo[3,4-d]pyrimidin-4-yl)phenyl]benzenesulfonamide] | 0.0001 to 1 µM | 1 to 10 µM |
